Experimental data taken from patent US20110218107A1 (priority 2010, published 2011).
Where two headings read alike, the source gives them in different places.

Key:
[1] = test system: vines; conditions: cited from earlier work
[2] = test system: banana plants; assay: Greenhouse test banana under zinc deficiency: leaf size and leaf weight; format: in vivo; conditions: 0% Zn supply
Procedure: (§1) Greenhouse experiments (Examples A and B) were carried out to evaluate the effect of fungicide applications on the growth and development of plants cultivated under Zn deficiency, in particular the effect of Propineb and Mancozeb on the growth and development of banana and tomato plants. Banana plants and tomato plants of the cultivar “Harzfeuer” were cultivated on rock wool at different zinc regimes, 100% and 0% zinc level, with and without Propineb or Mancozeb applications.
(§2) Banana on rock wool has been sowed and approximately after 3 weeks, the plants have been transferred to rock wool bags. After the specified intervals the plants have been treated 2 times preventive or one time curative with Propineb and/or have been fertilized with a modified Hoagland solution which contained 100% or 0% zinc and having the composition as given below. The fertilization was carried out in combination with the irrigation, using a drip application system.
(§3) Propineb has been applied through spray application of commercially available Antracol 70WG solution (conc. 0.15% Propineb). Preventive treatments with Propineb were carried out 34 days and 57 days (Treatment No. 3) after sowing. Curative application of Propineb was carried out 85 days (Treatment No. 4) after sowing according to the following regime:
(§4) The effect of preventive and curative Propineb treatments on the growth and development of banana plants was evaluated by measuring the leaf size, leaf weight and the chlorophyll a fluorescence using a Handy PEA system. The assessment of Treatment No. 3 was carried out 101 days after sowing. The morphological assessment of Treatment No. 4 was carried out 121 days after sowing. The chlorophyll a fluorescence was measured 13 and 28 days after the curative application of Propineb.

[3] = test system: tomato plants of the cultivar "Harzfeuer"; assay: Greenhouse test tomato under zinc deficiency: plant weight and plant height; format: in vivo; conditions: 0% Zn supply
Procedure: as §1
as §2, with “Tomato” for “Banana”, “treated either” for “treated”, “and” for “with Propineb and/or”, “below. Propineb and Mancozeb were applied.” for “below.”
Propineb has been applied through spray application of commercially available Antracol 70WG solution (conc. 0.15% Propineb). Mancozeb has been applied as commercially available Dithane NeoTec® 75WG (conc. 0.15% Mancozeb). Preventive treatments with Propineb or Mancozeb were carried out 27 days and 57 days (Treatment No. 3 and Treatment No. 5) after sowing. Curative applications of Propineb or Mancozeb were carried out 95 days (Treatment No. 4 and Treatment No. 6) after sowing according to the following regime:
The effect of preventive and curative treatments of Propineb and Mancozeb on the growth and development of tomato plants was evaluated by measuring the plant weight and plant height. The assessment of Treatment No. 3 and Treatment No. 5 was carried out 95 days after sowing. The morphological assessment of Treatment No. 4 and Treatment No. 6 was carried out 132 days after sowing.

[4] = test system: banana plants; assay: Greenhouse test banana under zinc deficiency: chlorophyll a fluorescence (Handy PEA); format: in vivo; conditions: 0% Zn supply, curative treatment
Procedure: as §1, §2, §3, §4
Fv/Fm: Fv/Fm is a parameter widely used to indicate the maximum quantum efficiency of photosystem II(PSII) This parameter is widely considered to be a selective indication of plant photosynthetic performance with healthy samples typically achieving a maximum Fv/Fm value of approx. 0.85. Values lower than this will be observed if a sample has been exposed to some type of biotic or abiotic stress factor which has reduced the capacity for photo-chemical quenching of energy within PSII. Fv/Fm is presented as a ratio of variable fluorescence (Fv) over the maximum fluorescence value (Fm). The Performance Index is essentially an indicator of sample vitality. (See e.g. Advanced Techniques in Soil Microbiology, 2007, 11, 319-341; Applied Soil Ecology, 2000, 15, 169-182.)

[5] = curative spray 85 days after sowing (0.15% Propineb), assessed 121 days after sowing
[6] = preventive spray 34 and 57 days after sowing (0.15% Propineb), assessed 101 days after sowing
[7] = curative spray 95 days after sowing (conc. 0.15%), assessed 132 days after sowing
[8] = preventive spray 27 and 57 days after sowing (conc. 0.15%), assessed 95 days after sowing
[9] = 1st measurement (13 days after curative application)
[10] = 2nd measurement (28 days after curative application)

**Q.** With `O=S(=O)([O-])[O-].[Zn+2]` [zinc sulfate] as the compound, how does the “yield and growth compared to untreated vines” value ([1]; in vivo) read?
**A.** significantly greater yield and growth

**Q.** Which results are given for Propineb?
**A.** Leaf size [2, 5]: 2101 ± 612 cm^2; Leaf weight [2, 5]: 90 g; Average leaf size [2, 6]: 2062 ± 284 cm^2; Average leaf weight [2, 6]: 76 g; Plant weight [3, 7]: 568 g; Plant height [3, 8]: 76; Plant weight [3, 8]: 341 g; Fv/Fm [4, 9]: 0.82; Performance index [4, 9]: 2.21; Fv/Fm [4, 10]: 0.83; Performance index [4, 10]: 2.69

**Q.** For `S=C(S)NCCNC(=S)S` [Zineb], which “yield and growth compared to untreated vines” value ([1]; vines, ISHS Acta Horticulturae 1987, 199, 157-161) is on record?
**A.** significantly greater yield and growth

**Q.** With Mancozeb as the compound, how does the Plant weight [3, 7] read?
**A.** 409 g

**Q.** And the Plant height [3, 8]?
**A.** 64

**Q.** And the Plant weight [3, 8]?
**A.** 249 g
